{"source": "patent US9125862B2", "about": "“Methods for the treatment of Prader-Willi-like syndrome or non-organic failure to thrive (NOFITT) feeding disorder using an agonist of the oxytocin receptor” (Institut National de la Sante et de la Rechereche Medicale …, priority 2010, dated 2015)", "test_system": "adult patients with PWS", "experiment": "Behavioural grid scores after a single intranasal administration, double-blind placebo-controlled pilot study", "format": "in vivo, human", "parameters": "key to Change in behavioural scores: Depressive tendencies, Mean / Change in behavioural scores: Self-depreciation, Mean / Change in behavioural scores: Interest in love affair, Mean / Change in behavioural scores: Trust in others, Mean / Change in behavioural scores: Isolation tendencies, Mean / Change in behavioural scores: Sadness tendencies, Mean: grid score: negative = deterioration, positive = improvement", "text": "The inventors designed a double-blind randomised, placebo-controlled pilot study (ClinicalTrials.gov Identifier: NCT01038570) to be conducted in a dedicated PWS centre, where patients are regularly admitted for one month and live in a controlled environment. Patients know they have no free access to food but no doubt about the time and the content of meals. For each stay, 16 patients with PWS are admitted and take part in daily planned occupational and physical group activities. They also receive medical care as needed and psychological support. The 24 patients included in this study (16 females, 8 males, median age 28.5 years [18.7 to 43.6], median BMI 43 kg/m2 [19.4 to 67.4]) were stratified on gender and IQ (median IQ=51 [45 to 75]). […] Patients as well as parents or caregivers gave their written consent prior to entering the study. Exclusion criteria were an abnormal ECG and other severe cardiovascular problems. Patients were well known to the team. Each pair of patients of the same gender and same IQ range was evaluated the same day. The two patients of the pair received either OT or placebo in a double-blind randomisation. Patients were included in the study over the course of three series of stays.\nEach patient received a single intranasal administration of either placebo (saline solution) or OT (Syntocinon®/-Spray, Novartis, Basel, Switzerland) with three puffs per nostril (24 UI). The dose of 24 UI is the most frequently reported in the literature. […] This nurse knew neither the patients nor the study.\nThe behaviour of the patients was carefully monitored, scored daily by the team psychologist, and documented on the case report form for the two days before drug administration, on the half-day following administration (early effects) and over the two days following drug administration (late effects). Both the staff and the rater were unaware of treatment status. There are currently no validated grids that evaluate the specific behavioural features of patients with PWS that they particularly wanted to study, i.e. tendencies towards isolation, sadness, and depression, self-depreciation, self-mutilation, conflicts with others, disruptive behaviour, interest in friendship, interest in love affairs, and trust of others. For this reason, they used an in-house grid developed by the caregivers and based on the routine observation of these patients in this dedicated centre for PWS with recognized expertise (17, 18). The criteria that the staff used to fill in the grid are explained in Table 1. The patients were well known to the team but the mean behavior status was re-evaluated during the first week of admission using the same grid. The behavioural features of the patients were scored as unchanged, moderately changed, or severely changed. For each criterion, a negative score reflected deterioration in the mean behavior status of the patient while a positive score reflected an improvement. Eating behaviour was also scored using three categories: usual, better than usual or worse, based on the analysis of each meal. The following were evaluated: amount of food intake per meal, amount of food requested per meal, duration of meal, and behaviour before/during/after the meal. To evaluate the early effect of OT, we analysed only the first meal after drug administration.", "key": {"[1]": {"conditions": "19 patients with deletions, P=0.05, data not shown"}, "[2]": {"conditions": "Early effect (half-day following administration), intranasal 24 UI"}, "[3]": {"conditions": "Late effect (mean of two days following administration), intranasal 24 UI"}, "[4]": {"conditions": "Pre-administration (mean of two days before), OT group baseline"}, "[5]": {"conditions": "pre-post difference (late effect score minus pre-administration score), OT group"}}, "data": [{"smiles": "CC[C@H](C)[C@@H]1NC(=O)[C@H](Cc2ccc(O)cc2)NC(=O)[C@@H](N)CSSC[C@@H](C(=O)N2CCC[C@H]2C(=O)N[C@@H](CC(C)C)C(=O)NCC(N)=O)NC(=O)[C@H](CC(N)=O)NC(=O)[C@H](CCC(N)=O)NC1=O", "note": "[oxytocin]", "values": [{"measurement": "effect on disruptive behaviour", "setting": "19 patients with deletions (9 OT, 10 placebo), P=0.04, data not shown", "value": "significant effect"}, {"measurement": "interest in friendship", "setting": "[1]", "value": "more interest in friendship"}, {"measurement": "trust in others", "setting": "[1]", "value": "trend towards more trust in others"}, {"measurement": "sadness tendencies", "setting": "19 patients with deletions, P=0.07, data not shown", "value": "fewer sadness tendencies"}, {"measurement": "Depressive tendencies score", "setting": "[2]", "value": "0 ± 0"}, {"measurement": "Disruptive behaviour score", "setting": "[2]", "value": "−0.167 ± 0.389"}, {"measurement": "Interest in friendship score", "setting": "[2]", "value": "0.917 ± 0.515"}, {"measurement": "Interest in love affairs score", "setting": "[2]", "value": "0.917 ± 0.515"}, {"measurement": "Isolation tendencies score", "setting": "[2]", "value": "−0.083 ± 0.289"}, {"measurement": "Sadness tendencies score", "setting": "[2]", "value": "−0.083 ± 0.289"}, {"measurement": "Self-depreciation score", "setting": "[2]", "value": "−0.083 ± 0.289"}, {"measurement": "Self-mutilation score", "setting": "[2]", "value": "−0.083 ± 0.289"}, {"measurement": "Trust in others score", "setting": "[2]", "value": "0.833 ± 0.389"}, {"measurement": "Conflicts with others score", "setting": "[3]", "value": "−0.111 ± 0.205"}, {"measurement": "Depressive tendencies score", "setting": "[3]", "value": "0 ± 0"}, {"measurement": "Interest in friendship score", "setting": "[3]", "value": "1.028 ± 0.234"}, {"measurement": "Interest in love affairs score", "setting": "[3]", "value": "0.903 ± 0.411"}, {"measurement": "Isolation tendencies score", "setting": "[3]", "value": "0 ± 0"}, {"measurement": "Self-depreciation score", "setting": "[3]", "value": "0 ± 0"}, {"measurement": "Self-mutilation score", "setting": "[3]", "value": "−0.083 ± 0.195"}, {"measurement": "Conflicts with others score", "setting": "[4]", "value": "−0.319 ± 0.359"}, {"measurement": "Depressive tendencies score", "setting": "[4]", "value": "−0.056 ± 0.192"}, {"measurement": "Disruptive behaviour score", "setting": "[4]", "value": "−0.431 ± 0.344"}, {"measurement": "Interest in friendship score", "setting": "[4]", "value": "0.875 ± 0.433"}, {"measurement": "Interest in love affairs score", "setting": "[4]", "value": "0.972 ± 0.531"}, {"measurement": "Isolation tendencies score", "setting": "[4]", "value": "−0.083 ± 0.289"}, {"measurement": "Sadness tendencies score", "setting": "[4]", "value": "−0.194 ± 0.407"}, {"measurement": "Self-depreciation score", "setting": "[4]", "value": "−0.056 ± 0.192"}, {"measurement": "Self-mutilation score", "setting": "[4]", "value": "−0.278 ± 0.468"}, {"measurement": "Trust in others score", "setting": "[4]", "value": "0.861 ± 0.332"}, {"measurement": "disruptive behaviour", "setting": "excluding the seven patients on psychotropic medications, two days following administration, P=0.04, data not shown", "value": "less disruptive behaviour"}, {"measurement": "Change in behavioural scores: Conflicts with others, Mean", "setting": "[5]", "value": 0.208}, {"measurement": "Change in behavioural scores: Depressive tendencies, Mean", "setting": "[5]", "value": 0.056}, {"measurement": "Change in behavioural scores: Interest in friendship, Mean", "setting": "[5]", "value": 0.153}, {"measurement": "Change in behavioural scores: Interest in love affair, Mean", "setting": "[5]", "value": "−0.069"}, {"measurement": "Change in behavioural scores: Isolation tendencies, Mean", "setting": "[5]", "value": 0.083}, {"measurement": "Change in behavioural scores: Sadness tendencies, Mean", "setting": "[5]", "value": 0.111}, {"measurement": "Change in behavioural scores: Self-depreciation, Mean", "setting": "[5]", "value": 0.056}, {"measurement": "Change in behavioural scores: Trust in others, Mean", "setting": "[5]", "value": 0.167}]}]}
